Assay results published in paper PMC6268944.

Test: amide bond formation (head-to-tail lactamisation): terminal amine + amino acid COOH, EDC.HCl 2.2 equiv, DMAP 0.2 equiv, substrate (HCl salt) and reagent solutions each added dropwise over 1 h
Details: 14-membered ring, CH2Cl2, 4.0 mM, 2 steps

SMILES: CCN1CCN(CC)C(=O)[C@@H](C)NC(=O)[C@@H](C)NC(=O)c2nc[nH]c2C1=O
- ring closure, yield over several steps (from CCN(CCN(CC)C(=O)[C@@H](C)N)C(=O)c1[nH]cnc1C(=O)N[C@H](C)C(=O)O, 14.0 h): 9%

SMILES: C[C@H]1NC(=O)c2nc[nH]c2C(=O)N(C)CCN(C)C(=O)[C@@H](C)NC1=O
- ring closure, yield over several steps (from C[C@@H](N)C(=O)N(C)CCN(C)C(=O)c1[nH]cnc1C(=O)N[C@H](C)C(=O)O, 14.0 h): 0%

SMILES: CCN1CCN(CC)C(=O)[C@H](C)NC(=O)[C@H](C)NC(=O)c2nc[nH]c2C1=O [H-Ala-[N(Et)CH2CH2N(Et)]-CO-(imidazole-4,5-diyl)-CO-Ala-OH]
- ring closure, yield over several steps (from CCN(CCN(CC)C(=O)[C@H](C)N)C(=O)c1[nH]cnc1C(=O)N[C@@H](C)C(=O)O, 14.0 h): 7%

SMILES: CCN1CCN(CC)C(=O)[C@H](C)NC(=O)[C@@H](C)NC(=O)c2nc[nH]c2C1=O [H-Ala-[N(Et)CH2CH2N(Et)]-CO-(imidazole-4,5-diyl)-CO-D-Ala-OH]
- ring closure, yield over several steps (from CCN(CCN(CC)C(=O)[C@H](C)N)C(=O)c1[nH]cnc1C(=O)N[C@H](C)C(=O)O, 14.0 h): 8%

SMILES: CCN1CCN(CC)C(=O)[C@H](C)NC(=O)CNC(=O)c2nc[nH]c2C1=O [H-Ala-[N(Et)CH2CH2N(Et)]-CO-(imidazole-4,5-diyl)-CO-Gly-OH]
- ring closure, yield over several steps (from CCN(CCN(CC)C(=O)[C@H](C)N)C(=O)c1[nH]cnc1C(=O)NCC(=O)O, 14.0 h): 0%

SMILES: C[C@@H]1NC(=O)c2nc[nH]c2C(=O)N(C)CCN(C)C(=O)[C@H](C)NC1=O [H-Ala-[N(Me)CH2CH2N(Me)]-CO-(imidazole-4,5-diyl)-CO-Ala-OH]
- ring closure, yield over several steps (from C[C@H](N)C(=O)N(C)CCN(C)C(=O)c1[nH]cnc1C(=O)N[C@@H](C)C(=O)O, 14.0 h): 32%

SMILES: C[C@@H]1NC(=O)[C@@H](C)NC(=O)c2nc[nH]c2C(=O)N(C)CCN(C)C1=O [H-Ala-[N(Me)CH2CH2N(Me)]-CO-(imidazole-4,5-diyl)-CO-D-Ala-OH]
- ring closure, yield over several steps (from C[C@H](N)C(=O)N(C)CCN(C)C(=O)c1[nH]cnc1C(=O)N[C@H](C)C(=O)O, 14.0 h): 0%

SMILES: C[C@@H]1NC(=O)CNC(=O)c2nc[nH]c2C(=O)N(C)CCN(C)C1=O [H-Ala-[N(Me)CH2CH2N(Me)]-CO-(imidazole-4,5-diyl)-CO-Gly-OH]
- ring closure, yield over several steps (from C[C@H](N)C(=O)N(C)CCN(C)C(=O)c1[nH]cnc1C(=O)NCC(=O)O, 14.0 h): 0%

SMILES: CC(C)C[C@@H]1NC(=O)c2nc[nH]c2C(=O)N(C)CCN(C)C(=O)[C@H](C)NC1=O [H-Ala-[N(Me)CH2CH2N(Me)]-CO-(imidazole-4,5-diyl)-CO-Leu-OH]
- ring closure, yield over several steps (from CC(C)C[C@H](NC(=O)c1nc[nH]c1C(=O)N(C)CCN(C)C(=O)[C@H](C)N)C(=O)O, 14.0 h): 12%

SMILES: CCN1CCN(CC)C(=O)[C@@H](C)NC(=O)[C@H](C)NC(=O)c2nc[nH]c2C1=O [H-D-Ala-[N(Et)CH2CH2N(Et)]-CO-(imidazole-4,5-diyl)-CO-Ala-OH]
- ring closure, yield over several steps (from CCN(CCN(CC)C(=O)[C@@H](C)N)C(=O)c1[nH]cnc1C(=O)N[C@@H](C)C(=O)O, 14.0 h): 10%

SMILES: CCN1CCN(CC)C(=O)[C@@H](C)NC(=O)CNC(=O)c2nc[nH]c2C1=O [H-D-Ala-[N(Et)CH2CH2N(Et)]-CO-(imidazole-4,5-diyl)-CO-Gly-OH]
- ring closure, yield over several steps (from CCN(CCN(CC)C(=O)[C@@H](C)N)C(=O)c1[nH]cnc1C(=O)NCC(=O)O, 14.0 h): 3%

SMILES: C[C@@H]1NC(=O)c2nc[nH]c2C(=O)N(C)CCN(C)C(=O)[C@@H](C)NC1=O [H-D-Ala-[N(Me)CH2CH2N(Me)]-CO-(imidazole-4,5-diyl)-CO-Ala-OH]
- ring closure, yield over several steps (from C[C@H](NC(=O)c1nc[nH]c1C(=O)N(C)CCN(C)C(=O)[C@@H](C)N)C(=O)O, 14.0 h): 22%

SMILES: C[C@H]1NC(=O)CNC(=O)c2nc[nH]c2C(=O)N(C)CCN(C)C1=O [H-D-Ala-[N(Me)CH2CH2N(Me)]-CO-(imidazole-4,5-diyl)-CO-Gly-OH]
- ring closure, yield over several steps (from C[C@@H](N)C(=O)N(C)CCN(C)C(=O)c1[nH]cnc1C(=O)NCC(=O)O, 14.0 h): 0%

SMILES: CC(C)C[C@@H]1NC(=O)c2nc[nH]c2C(=O)N(C)CCN(C)C(=O)[C@@H](C)NC1=O [H-D-Ala-[N(Me)CH2CH2N(Me)]-CO-(imidazole-4,5-diyl)-CO-Leu-OH]
- ring closure, yield over several steps (from CC(C)C[C@H](NC(=O)c1nc[nH]c1C(=O)N(C)CCN(C)C(=O)[C@@H](C)N)C(=O)O, 14.0 h): 11%

SMILES: CCN1CCN(CC)C(=O)c2[nH]cnc2C(=O)N[C@@H](C)C(=O)NCC1=O [H-Gly-[N(Et)CH2CH2N(Et)]-CO-(imidazole-4,5-diyl)-CO-Ala-OH]
- ring closure, yield over several steps (from CCN(CCN(CC)C(=O)c1[nH]cnc1C(=O)N[C@@H](C)C(=O)O)C(=O)CN, 14.0 h): 9%

SMILES: CCN1CCN(CC)C(=O)c2[nH]cnc2C(=O)N[C@H](C)C(=O)NCC1=O [H-Gly-[N(Et)CH2CH2N(Et)]-CO-(imidazole-4,5-diyl)-CO-D-Ala-OH]
- ring closure, yield over several steps (from CCN(CCN(CC)C(=O)c1[nH]cnc1C(=O)N[C@H](C)C(=O)O)C(=O)CN, 14.0 h): 8%

SMILES: CCN1CCN(CC)C(=O)c2[nH]cnc2C(=O)NCC(=O)NCC1=O [H-Gly-[N(Et)CH2CH2N(Et)]-CO-(imidazole-4,5-diyl)-CO-Gly-OH]
- ring closure, yield over several steps (from CCN(CCN(CC)C(=O)c1[nH]cnc1C(=O)NCC(=O)O)C(=O)CN, 14.0 h): 0%

SMILES: C[C@@H]1NC(=O)c2nc[nH]c2C(=O)N(C)CCN(C)C(=O)CNC1=O [H-Gly-[N(Me)CH2CH2N(Me)]-CO-(imidazole-4,5-diyl)-CO-Ala-OH]
- ring closure, yield over several steps (from C[C@H](NC(=O)c1nc[nH]c1C(=O)N(C)CCN(C)C(=O)CN)C(=O)O, 21.0 h): 7%

SMILES: C[C@H]1NC(=O)c2nc[nH]c2C(=O)N(C)CCN(C)C(=O)CNC1=O [H-Gly-[N(Me)CH2CH2N(Me)]-CO-(imidazole-4,5-diyl)-CO-D-Ala-OH]
- ring closure, yield over several steps (from C[C@@H](NC(=O)c1nc[nH]c1C(=O)N(C)CCN(C)C(=O)CN)C(=O)O, 18.0 h): 17%

SMILES: CN1CCN(C)C(=O)c2[nH]cnc2C(=O)NCC(=O)NCC1=O [H-Gly-[N(Me)CH2CH2N(Me)]-CO-(imidazole-4,5-diyl)-CO-Gly-OH]
- ring closure, yield over several steps (from CN(CCN(C)C(=O)c1[nH]cnc1C(=O)NCC(=O)O)C(=O)CN, 10.5 h): 7%

SMILES: CC(C)C[C@@H]1NC(=O)c2nc[nH]c2C(=O)N(C)CCN(C)C(=O)CNC1=O [H-Gly-[N(Me)CH2CH2N(Me)]-CO-(imidazole-4,5-diyl)-CO-Leu-OH]
- ring closure, yield over several steps (from CC(C)C[C@H](NC(=O)c1nc[nH]c1C(=O)N(C)CCN(C)C(=O)CN)C(=O)O, 17.5 h): 37%

SMILES: CCN1CCN(CC)C(=O)[C@H](CC(C)C)NC(=O)[C@H](C)NC(=O)c2nc[nH]c2C1=O [H-Leu-[N(Et)CH2CH2N(Et)]-CO-(imidazole-4,5-diyl)-CO-Ala-OH]
- ring closure, yield over several steps (from CCN(CCN(CC)C(=O)[C@@H](N)CC(C)C)C(=O)c1[nH]cnc1C(=O)N[C@@H](C)C(=O)O, 14.0 h): 11%

SMILES: CCN1CCN(CC)C(=O)[C@H](CC(C)C)NC(=O)[C@@H](C)NC(=O)c2nc[nH]c2C1=O [H-Leu-[N(Et)CH2CH2N(Et)]-CO-(imidazole-4,5-diyl)-CO-D-Ala-OH]
- ring closure, yield over several steps (from CCN(CCN(CC)C(=O)[C@@H](N)CC(C)C)C(=O)c1[nH]cnc1C(=O)N[C@H](C)C(=O)O, 14.0 h): 0%

SMILES: CCN1CCN(CC)C(=O)[C@H](CC(C)C)NC(=O)CNC(=O)c2nc[nH]c2C1=O [H-Leu-[N(Et)CH2CH2N(Et)]-CO-(imidazole-4,5-diyl)-CO-Gly-OH]
- ring closure, yield over several steps (from CCN(CCN(CC)C(=O)[C@@H](N)CC(C)C)C(=O)c1[nH]cnc1C(=O)NCC(=O)O, 14.0 h): 8%

SMILES: CCN1CCN(CC)C(=O)[C@H](CC(C)C)NC(=O)[C@H](CC(C)C)NC(=O)c2nc[nH]c2C1=O [H-Leu-[N(Et)CH2CH2N(Et)]-CO-(imidazole-4,5-diyl)-CO-Leu-OH]
- ring closure, yield over several steps (from CCN(CCN(CC)C(=O)[C@@H](N)CC(C)C)C(=O)c1[nH]cnc1C(=O)N[C@@H](CC(C)C)C(=O)O, 14.0 h): 0%

SMILES: CC(C)C[C@@H]1NC(=O)[C@H](C)NC(=O)c2nc[nH]c2C(=O)N(C)CCN(C)C1=O [H-Leu-[N(Me)CH2CH2N(Me)]-CO-(imidazole-4,5-diyl)-CO-Ala-OH]
- ring closure, yield over several steps (from CC(C)C[C@H](N)C(=O)N(C)CCN(C)C(=O)c1[nH]cnc1C(=O)N[C@@H](C)C(=O)O, 14.0 h): 14%

SMILES: CC(C)C[C@@H]1NC(=O)[C@@H](C)NC(=O)c2nc[nH]c2C(=O)N(C)CCN(C)C1=O [H-Leu-[N(Me)CH2CH2N(Me)]-CO-(imidazole-4,5-diyl)-CO-D-Ala-OH]
- ring closure, yield over several steps (from CC(C)C[C@H](N)C(=O)N(C)CCN(C)C(=O)c1[nH]cnc1C(=O)N[C@H](C)C(=O)O, 14.0 h): 37%

SMILES: CC(C)C[C@@H]1NC(=O)CNC(=O)c2nc[nH]c2C(=O)N(C)CCN(C)C1=O [H-Leu-[N(Me)CH2CH2N(Me)]-CO-(imidazole-4,5-diyl)-CO-Gly-OH]
- ring closure, yield over several steps (from CC(C)C[C@H](N)C(=O)N(C)CCN(C)C(=O)c1[nH]cnc1C(=O)NCC(=O)O, 14.0 h): 0%
